Data: BindingDB's records for doi:10.1021/jm050499d (University of Zürich, 2005)

Assay: Predicted binding affinity for beta secretase by linear interaction energy continuum electrostatics

Work on `COCCCNC(=O)c1cc(NC(=O)Nc2cc(C(F)(F)F)cc(C(F)(F)F)c2)ccc1N(C)C` [5-[3-(3,5-Bis-trifluoromethyl-phenyl)-ureido]-2-dimethylamino-N-(3-methoxy-propyl)-benzamide] yielded a Ki of 9.4 µM.
